From patent US20090246293A1 (priority 2008, published 2009) come the findings set out here.

Test [1] concerns Phytophthora infestans (PHYTIN). In kind it is in vivo. The settings on record: for Reduction in percent disease, Formul. I / Reduction in percent disease, Formul. II: PHYTIN; for Reduction in percent disease, Formul. I / effect of Formulation I on the effectiveness of fungicides, PHYTIN / Reduction in percent disease PHYTIN: fungicide with Formulation I at 100 ppm; for effect of Formulation I on the effectiveness of fungicides, PHYTIN: Table 20.

For test [2], the system named is Pseudoperonospora cubensis (PSPECU). The settings on record: in vivo.
The subject of test [3] is Plasmopara viticola (PLASVI). In kind it is in vivo. As to conditions: for Reduction in percent disease, Formul. I / Reduction in percent disease, Formul. II: PLASVI; for Reduction in percent disease, Formul. I / effect of Formulation I on the effectiveness of fungicides, PLASVI / Reduction in percent disease PLASVI: fungicide with Formulation I at 100 ppm; for effect of Formulation I on the effectiveness of fungicides, PLASVI: Table 20.

[4] abbreviates: fungicide with Formulation II at 100 ppm, Table 21.
The mark [5] stands for this setting: fungicide with Formulation II at 100 ppm of attractant derivative, Table 22.

Where two headings read alike, the source gives them in different places.

Consider `CCCCCCCCCc1c(COC)nc2ncnn2c1N` [Compound T], for which the “Reduction in percent disease, Formul. I” value in test [1] (Table 21) is given as “x (0-20% reduction in percent disease)”; in test [2], “x (key: x: 0-20% reduction in percent disease; xx: 21-35% reduction in percent disease; xxx: 36-50% reduction in percent disease; xxxx: >50% reduction in percent disease)”; in test [3] (Table 21), “x (0-20% reduction in percent disease)”. The “Reduction in percent disease, Formul. II” value in test [1] (setting [4]) is reported as “x (0-20% reduction in percent disease)”; in test [2] it was “x (key: x: 0-20% reduction in percent disease; xx: 21-35% reduction in percent disease; xxx: 36-50% reduction in percent disease; xxxx: >50% reduction in percent disease)”; in test [3] (setting [4]) it was “x (0-20% reduction in percent disease)”.

For `[Cl-].[Cu+2].[Cu+2].[OH-].[OH-].[OH-]` [Copper oxychloride], the “effect of Formulation I on the effectiveness of fungicides, PHYTIN” value (“effect of Formulation I … PHYTIN” below) in test [1] is reported as “x (0-20% reduction in percent disease)”. Moreover, the “effect of Formulation I on the effectiveness of fungicides, PSPECU” value (“effect of Formulation I … PSPECU” for short) in test [2] was “x (key: x: 0-20% reduction in percent disease; xx: 21-35% reduction in percent disease; xxx: 36-50% reduction in percent disease; xxxx: >50% reduction in percent disease)”. The “effect of Formulation I on the effectiveness of fungicides, PLASVI” value (“effect of Formulation I … PLASVI” for short) in test [3] is listed as “x (0-20% reduction in percent disease)”.

Take `Cc1ccc(-c2c(Cl)nc(C#N)n2S(=O)(=O)N(C)C)cc1` [Cyazofamid]: the results for the “Reduction in percent disease, Formul. I” value in test [1] (Table 21) and in test [3] (Table 21) were “xx (21-35% reduction in percent disease)” and “x (0-20% reduction in percent disease)”, respectively. Also, the “Reduction in percent disease, Formul. II” value is “xxx (36-50% reduction in percent disease)” in test [1] (setting [4]), “x (key: x: 0-20% reduction in percent disease; xx: 21-35% reduction in percent disease; xxx: 36-50% reduction in percent disease; xxxx: >50% reduction in percent disease)” in test [2] and “x (0-20% reduction in percent disease)” in test [3] (setting [4]). In addition, the “Reduction in percent disease PHYTIN” value in test [1] (Table 19) was “x (0-20% reduction in percent disease)”. The “Reduction in percent disease PLASVI” value in test [3] (Table 19) is listed as “x (0-20% reduction in percent disease)”.

Consider `CCNC(=O)NC(=O)/C(C#N)=N/OC` [Cymoxanil], for which the “Reduction in percent disease PHYTIN” value in test [1] (Table 18) was “xx (21-35% reduction in percent disease)”. Moreover, the “Reduction in percent disease PSPECU” value in test [2] is “x (key: x: 0-20% reduction in percent disease; xx: 21-35% reduction in percent disease; xxx: 36-50% reduction in percent disease; xxxx: >50% reduction in percent disease)”. In addition, in test [3] (Table 18), the “Reduction in percent disease PLASVI” value was “x (0-20% reduction in percent disease)”.

For the molecule `COc1ccc(C(=CC(=O)N2CCOCC2)c2ccc(Cl)cc2)cc1OC` [Dimethomorph], the “Reduction in percent disease PHYTIN” value in test [1] (Table 19) was “x (0-20% reduction in percent disease)”. Besides, in test [2], the “Reduction in percent disease PSPECU” value was “x (key: x: 0-20% reduction in percent disease; xx: 21-35% reduction in percent disease; xxx: 36-50% reduction in percent disease; xxxx: >50% reduction in percent disease)”. Further, the “Reduction in percent disease PLASVI” value in test [3] (Table 19) is “xx (21-35% reduction in percent disease)”.

For the molecule `CNC(=O)/C(=N/OC)c1ccccc1COc1cc(C)ccc1C` [Dimoxystrobin], the “Reduction in percent disease PHYTIN” value in test [1] (Table 19) was “x (0-20% reduction in percent disease)”. Further, the “Reduction in percent disease PSPECU” value in test [2] is reported as “x (key: x: 0-20% reduction in percent disease; xx: 21-35% reduction in percent disease; xxx: 36-50% reduction in percent disease; xxxx: >50% reduction in percent disease)”. Further, the “Reduction in percent disease PLASVI” value in test [3] (Table 19) was “x (0-20% reduction in percent disease)”.

With `CCNc1nc(CC)c(C(=O)NC(C#N)c2cccs2)s1` (stereo not shown) [Ethaboxam, reference compound], the “Reduction in percent disease PHYTIN” value in test [1] (Table 19) was “x (0-20% reduction in percent disease)”. For the same molecule, the “Reduction in percent disease, Formul. II” value was “x (key: x: 0-20% reduction in percent disease; xx: 21-35% reduction in percent disease; xxx: 36-50% reduction in percent disease; xxxx: >50% reduction in percent disease)” in test [2] and “x (0-20% reduction in percent disease)” in test [3] (setting [4]). Moreover, the “Reduction in percent disease, Formul. I” value in test [3] (Table 21) is recorded as “x (0-20% reduction in percent disease)”. Also, the “Reduction in percent disease PLASVI” value in test [3] (Table 19) is given as “x (0-20% reduction in percent disease)”.

As for `O=C(NCc1ncc(C(F)(F)F)cc1Cl)c1c(Cl)cccc1Cl` [Fluopicolide], the “effect of Formulation I … PHYTIN” value in test [1] is reported as “xx (21-35% reduction in percent disease)”. Besides, the “effect of Formulation I … PSPECU” value in test [2] was “x (key: x: 0-20% reduction in percent disease; xx: 21-35% reduction in percent disease; xxx: 36-50% reduction in percent disease; xxxx: >50% reduction in percent disease)”. In addition, the “Reduction in percent disease, Formul. II” value in test [3] (setting [5]) is reported as “x (0-20% reduction in percent disease)”.

Regarding `Cc1ccc(C(C)NC(=O)[C@@H](NC(=O)OC(C)C)C(C)C)cc1` (stereo partly shown) [Iprovalicarb], in test [1] (Table 19), the “Reduction in percent disease PHYTIN” value is given as “x (0-20% reduction in percent disease)”. Further, the “Reduction in percent disease PSPECU” value in test [2] is “x (key: x: 0-20% reduction in percent disease; xx: 21-35% reduction in percent disease; xxx: 36-50% reduction in percent disease; xxxx: >50% reduction in percent disease)”. In test [3] (Table 19), the “Reduction in percent disease PLASVI” value was “xx (21-35% reduction in percent disease)”.

As for `C#CCOc1ccc(CCNC(=O)C(OCC#C)c2ccc(Cl)cc2)cc1OC` (stereo not shown) [Mandipropamid], the “Reduction in percent disease PHYTIN” value in test [1] (Table 19) is recorded as “x (0-20% reduction in percent disease)”. Further, the “Reduction in percent disease PSPECU” value in test [2] is “x (key: x: 0-20% reduction in percent disease; xx: 21-35% reduction in percent disease; xxx: 36-50% reduction in percent disease; xxxx: >50% reduction in percent disease)”. Besides, the “Reduction in percent disease PLASVI” value in test [3] (Table 19) was “xx (21-35% reduction in percent disease)”.

With `COCC(=O)N(c1c(C)cccc1C)[C@H](C)C(=O)OC` [Mefenoxam], the figures for the “Reduction in percent disease, Formul. II” value in test [1] (setting [5]), in test [2] and in test [3] (setting [5]) were “xx (21-35% reduction in percent disease)”, “x (key: x: 0-20% reduction in percent disease; xx: 21-35% reduction in percent disease; xxx: 36-50% reduction in percent disease; xxxx: >50% reduction in percent disease)” and “xx (21-35% reduction in percent disease)”, respectively. Further, in test [1] (Table 18), the “Reduction in percent disease PHYTIN” value is “xxxx (>50% reduction in percent disease)”. Further, the “effect of Formulation I … PHYTIN” value in test [1] is recorded as “xx (21-35% reduction in percent disease)”. Also, the “effect of Formulation I … PLASVI” value in test [3] is recorded as “x (0-20% reduction in percent disease)”.

In the case of `COCC(=O)N(c1c(C)cccc1C)C(C)C(=O)OC` (stereo not shown) [Metalaxyl], the “effect of Formulation I … PHYTIN” value in test [1] is given as “xx (21-35% reduction in percent disease)”. In test [2], the “effect of Formulation I … PSPECU” value is “x (key: x: 0-20% reduction in percent disease; xx: 21-35% reduction in percent disease; xxx: 36-50% reduction in percent disease; xxxx: >50% reduction in percent disease)”. In addition, in test [3], the “effect of Formulation I … PLASVI” value is on record as “x (0-20% reduction in percent disease)”.

With `CO/C=C(/C(=O)OC)c1ccccc1COc1cccc(C(F)(F)F)n1` [Picoxystrobin], the entries for the “Reduction in percent disease, Formul. II” value in test [1] (setting [5]) and in test [2] were “x (0-20% reduction in percent disease)” and “x (key: x: 0-20% reduction in percent disease; xx: 21-35% reduction in percent disease; xxx: 36-50% reduction in percent disease; xxxx: >50% reduction in percent disease)”, respectively. In test [1] (Table 18), the “Reduction in percent disease PHYTIN” value is “x (0-20% reduction in percent disease)”. Also, the “Reduction in percent disease PLASVI” value in test [3] (Table 18) is on record as “xxx (36-50% reduction in percent disease)”.
